Assay results from ChEMBL document CHEMBL4229361, “A novel tetrahydroisoquinoline (THIQ) analogue induces mitochondria-dependent apoptosis” (Eur J Med Chem, 2018).
pIC50: −log10 of the molar value.

Tested on: A549
Assay: Antiproliferative activity against human A549 cells after 48 hrs by CCK-8 assay
Type: functional, cell-based
Settings: A549, 48 h

| pIC50 | SMILES |
| --- | --- |
| 4.65 | C(#CC1NCCc2cc(OCc3ccccc3)c(OCc3ccccc3)cc21)c1ccccc1 (configuration not stated) |
| 4.40 | COc1cc2c(cc1OC)C(C#Cc1ccccc1)NCC2 (configuration not stated) |
